# Data taken from patent US20210308089A1, “METHODS OF TREATING AND/OR PREVENTING VIRAL INFECTIONS AND/OR DISEASES CAUSED BY VIRUSES IN A SUBJECT IN NEED THEREOF” (priority 2020, published 2021).
# Tested on: patients of the REDUCE-IT and earlier EPA placebo-controlled trials
# Assay type: in vivo, human
# Conditions: R-I
structure (smiles),measurement,value
"CC/C=C\C/C=C\C/C=C\C/C=C\C/C=C\CCCC(=O)OCC [icosapent ethyl, eicosapentaenoic acid ethyl ester]",ARR: Platelet count: PCS Low <100 × 10^3/uL,−0.6%
same,ARR: SBP High (≥160 mmHg),−1.7%
same,ARR: SBP High and rose ≥20 mmHg,−1.1%
same,ARR: SBP Low (≤90 mmHg),0.5%
same,ARR: SBP dropped ≥20 mmHg,2.6%
same,ARR: SBP low and dropped ≥20 mmHg,0.2%
same,ARR: SBP rose ≥20 mmHg,−0.7%
same,ARR: Urate high (Day 120),4.4%
same,ARR: Urate high (Day 360),3.9%
same,ARR: Urate high (Day 720),3.4%
same,ARR: Urate high (Day 1080),1.2%
same,ARR: Urate high (Day 1440),1.3%
same,ARR: Urate high (Day 1800),1.0%
same,ARR: Urate shift: normal to high (Day 120),2.8%
same,ARR: Urate shift: normal to high (Day 360),3.0%
same,ARR: Urate shift: normal to high (Day 720),2.5%
same,ARR: Urate shift: normal to high (Day 1080),0.8%
same,ARR: Urate shift: normal to high (Day 1440),0.6%
same,ARR: Urate shift: normal to high (Day 1800),0.2%
same,ARR: Urate shift: normal to low (Day 120),0.1%
same,ARR: Urate shift: normal to low (Day 360),−0.1%
same,ARR: Urate shift: normal to low (Day 720),−0.2%
same,ARR: Urate shift: normal to low (Day 1080),−0.1%
same,ARR: Urate shift: normal to low (Day 1440),−0.4%
same,ARR: Uric acid PCS High >7.5 mg/dL (Women),0.8%
same,ARR: Uric acid PCS High >8.0 mg/dL (Men),4.2%
same,ARR: Uric acid PCS Low <1.9 mg/dL (Women),0.0%
same,ARR: Uric acid PCS Low <2.5 mg/dL (Men),−0.2%
same,NNT: ALP high (Day 120),67
same,NNT: ALP high (Day 360),50
same,NNT: ALP high (Day 720),41
same,NNT: ALP high (Day 1080),33
same,NNT: ALP high (Day 1440),34
same,NNT: ALP high (Day 1800),37
same,NNT: ALP shift: normal to high (Day 120),78
same,NNT: ALP shift: normal to high (Day 360),54
same,NNT: ALP shift: normal to high (Day 720),39
same,NNT: ALP shift: normal to high (Day 1080),34
same,NNT: ALP shift: normal to high (Day 1440),37
same,NNT: ALP shift: normal to high (Day 1800),39
same,NNT: ALP shift: normal to low (Day 120),−267
same,NNT: ALP shift: normal to low (Day 360),−359
same,NNT: ALP shift: normal to low (Day 720),−252
same,NNT: ALP shift: normal to low (Day 1080),−360
same,NNT: ALP shift: normal to low (Day 1440),−956
same,NNT: Albumin high (Day 120),−133
same,NNT: Albumin high (Day 360),−138
same,NNT: Albumin high (Day 720),−156
same,NNT: Albumin high (Day 1080),−140
same,NNT: Albumin high (Day 1440),−132
same,NNT: Albumin shift: normal to high (Day 120),−123
same,NNT: Albumin shift: normal to high (Day 360),−137
same,NNT: Albumin shift: normal to high (Day 720),−140
same,NNT: Albumin shift: normal to high (Day 1080),−248
same,NNT: Albumin shift: normal to high (Day 1440),−145
same,NNT: Bilirubin >1x ULN to 2x ULN,−29
same,NNT: Bilirubin >2x ULN to 3x ULN,−497
same,NNT: Bilirubin high (Day 120),−42
same,NNT: Bilirubin high (Day 360),−50
same,NNT: Bilirubin high (Day 720),−38
same,NNT: Bilirubin high (Day 1080),−50
same,NNT: Bilirubin high (Day 1440),−40
same,NNT: Bilirubin high (Day 1800),−43
same,NNT: Bilirubin shift: normal to high (Day 120),−77
same,NNT: Bilirubin shift: normal to high (Day 360),−80
same,NNT: Bilirubin shift: normal to high (Day 720),−76
same,NNT: Bilirubin shift: normal to high (Day 1080),−95
same,NNT: Bilirubin shift: normal to high (Day 1440),−57
same,NNT: Bilirubin shift: normal to high (Day 1800),−81
same,NNT: Calcium high (Day 120),430
same,NNT: Calcium high (Day 360),1019
same,NNT: Calcium high (Day 720),325
same,NNT: Calcium low (Day 120),−1944
same,NNT: Calcium low (Day 360),−410
same,NNT: Calcium low (Day 720),−567
same,NNT: DBP High (≥100 mmHg),−165
same,NNT: DBP High and Rose ≥10 mmHg,−264
same,NNT: DBP Low (≤50 mmHG),−794
same,NNT: DBP Low and dropped ≥10 mmHg,−3916
same,NNT: DBP dropped ≥10 mmHG,−32
same,NNT: DBP rose ≥10 mmHg,158
same,NNT: High platelets (Day 720),−162
same,NNT: Low platelets (Day 360),54
same,NNT: Low platelets (Day 720),144
same,NNT: Low platelets (Day 1080),85
same,NNT: Platelet count: PCS Low <100 × 10^3/uL,166
same,NNT: SBP High (≥160 mmHg),58
same,NNT: SBP High and rose ≥20 mmHg,87
same,NNT: SBP Low (≤90 mmHg),−221
same,NNT: SBP dropped ≥20 mmHg,−38
same,NNT: SBP low and dropped ≥20 mmHg,−497
same,NNT: SBP rose ≥20 mmHg,140
same,NNT: Urate high (Day 120),−22
same,NNT: Urate high (Day 360),−26
same,NNT: Urate high (Day 720),−29
same,NNT: Urate high (Day 1080),−81
same,NNT: Urate high (Day 1440),−76
same,NNT: Urate high (Day 1800),−103
same,NNT: Urate shift: normal to high (Day 120),−36
same,NNT: Urate shift: normal to high (Day 360),−33
same,NNT: Urate shift: normal to high (Day 720),−39
same,NNT: Urate shift: normal to high (Day 1080),−127
same,NNT: Urate shift: normal to high (Day 1440),−160
same,NNT: Urate shift: normal to high (Day 1800),−422
same,NNT: Urate shift: normal to low (Day 120),−1647
same,NNT: Urate shift: normal to low (Day 360),1418
same,NNT: Urate shift: normal to low (Day 720),533
same,NNT: Urate shift: normal to low (Day 1080),740
same,NNT: Urate shift: normal to low (Day 1440),280
same,NNT: Uric acid PCS High >7.5 mg/dL (Women),−120
same,NNT: Uric acid PCS High >8.0 mg/dL (Men),−24
same,NNT: Uric acid PCS Low <1.9 mg/dL (Women),−1.58e+07
same,NNT: Uric acid PCS Low <2.5 mg/dL (Men),569
same,Placebo-Adjusted % Change: Alkaline phosphatase (Day 120),−10.4%
same,Placebo-Adjusted % Change: Alkaline phosphatase (Day 360),−12.5%
same,Placebo-Adjusted % Change: Alkaline phosphatase (Day 720),−12.6%
same,Placebo-Adjusted % Change: Alkaline phosphatase (Day 1080),−14.1%
same,Placebo-Adjusted % Change: Alkaline phosphatase (Day 1440),−13.1%
same,Placebo-Adjusted % Change: DBP (Day 120),−.9%
same,Placebo-Adjusted % Change: DBP (Day 360),−.8%
same,Placebo-Adjusted % Change: DBP (Day 720),−.6%
same,Placebo-Adjusted % Change: DBP (Day 1080),−.5%
same,Placebo-Adjusted % Change: DBP (Day 1440),−.4%
same,Placebo-Adjusted % Change: SBP (Day 120),−1%
same,Placebo-Adjusted % Change: SBP (Day 360),−1.1%
same,Placebo-Adjusted % Change: SBP (Day 720),−1%
same,Placebo-Adjusted % Change: SBP (Day 1080),−1.1%
same,Placebo-Adjusted % Change: SBP (Day 1440),−.9%
same,Placebo-Adjusted % Change: Urate (Day 120),+4.31%
same,Placebo-Adjusted % Change: Urate (Day 360),+4.07%
same,Placebo-Adjusted % Change: Urate (Day 720),+3.66%
same,Placebo-Adjusted % Change: Urate (Day 1080),+2.94%
same,Placebo-Adjusted % Change: Urate (Day 1440),+3.23%
same,Risk Ratio (95% CI): ALP high (Day 120),0.623 (0.485 to 0.801) 2
same,Risk Ratio (95% CI): ALP high (Day 360),0.542 (0.420 to 0.700) 3
same,Risk Ratio (95% CI): ALP high (Day 720),0.568 (0.449 to 0.717) 3
same,Risk Ratio (95% CI): ALP high (Day 1080),0.486 (0.375 to 0.630) 3
same,Risk Ratio (95% CI): ALP high (Day 1440),0.483 (0.362 to 0.644) 3
same,Risk Ratio (95% CI): ALP high (Day 1800),0.527 (0.362 to 0.767) 3
same,Risk Ratio (95% CI): ALP shift: normal to high (Day 120),0.401 (0.267 to 0.603) 3
same,Risk Ratio (95% CI): ALP shift: normal to high (Day 360),0.335 (0.227 to 0.497) 4
same,Risk Ratio (95% CI): ALP shift: normal to high (Day 720),0.397 (0.291 to 0.541) 4
